Where a SMILES comes first, the peptide text is derived from it. The star is where a group is joined. pNA = O=[N+]([O-])c1ccc(N*)cc1
What was measured:
[1] = biological target: recombinant soluble CD26 (rsCD26), full extracellular domain of human T cell membrane CD26/DPPIV, 105 kDa form, from transfected CHO cells (Homo sapiens, UniProt P27487); experiment: DPPIV enzyme activity: Gly-Pro-pNA hydrolysis, Michaelis-Menten kinetics and inhibition; conditions: U = enzyme cleaving 1 mmol Gly-Pro-pNA/min at pH7.6 and 20° C.
Chain of recombinant soluble CD26 (rsCD26), full extracellular domain of human T cell membrane CD26/DPPIV, 105 kDa form, from transfected CHO cells (P27487 29-766 limits assumed): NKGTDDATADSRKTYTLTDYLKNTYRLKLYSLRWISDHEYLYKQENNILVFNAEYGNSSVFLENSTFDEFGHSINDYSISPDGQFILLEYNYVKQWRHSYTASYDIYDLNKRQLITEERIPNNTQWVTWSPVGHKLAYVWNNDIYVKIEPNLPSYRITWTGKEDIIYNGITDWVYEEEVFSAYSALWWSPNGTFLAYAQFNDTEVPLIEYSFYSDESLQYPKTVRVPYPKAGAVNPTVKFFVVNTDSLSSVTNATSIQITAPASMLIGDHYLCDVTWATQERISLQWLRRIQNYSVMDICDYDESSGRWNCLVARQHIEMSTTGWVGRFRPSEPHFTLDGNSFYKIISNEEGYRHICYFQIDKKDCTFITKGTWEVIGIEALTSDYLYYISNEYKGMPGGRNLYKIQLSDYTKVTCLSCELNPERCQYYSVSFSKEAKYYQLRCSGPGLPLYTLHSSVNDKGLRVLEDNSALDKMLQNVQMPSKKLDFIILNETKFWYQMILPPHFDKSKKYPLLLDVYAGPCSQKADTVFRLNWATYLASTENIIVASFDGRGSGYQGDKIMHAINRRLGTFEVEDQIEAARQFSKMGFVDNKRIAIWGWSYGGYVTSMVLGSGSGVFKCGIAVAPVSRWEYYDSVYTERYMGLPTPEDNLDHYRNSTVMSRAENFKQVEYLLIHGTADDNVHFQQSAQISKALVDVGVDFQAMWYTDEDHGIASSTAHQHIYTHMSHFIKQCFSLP

[2] = test system: serum DPPIV (soluble 175 kDa form of DPPIV/CD26, DPPT-L) purified from normal human serum; experiment: as above; assay type: biochemical
Procedure: The DPPIV enzyme activities of the rsCD26 and serum DPPIV were analyzed by Michaelis-Menten kinetics by assessing kinetics of hydrolysis of substrate at different concentrations. […] To further exclude the possibility that we had purified irrelevant aminopeptidases which, working in concert or by sequential hydrolysis, could release the pNA chromophore from substrate, we tested a number of substrates which could be hydrolyzed by non-DPPIV aminopeptidases. One candidate for sequential hydrolysis is aminopeptidase M (3.4.11.2), but no hydrolysis of Ala-pNA, Arg-pNA or Leu-pNA was observed and activity by aminopolypeptidase (3.4.11.14) may be similarly excluded. The substrate succinyl-Gly-Pro-pNA was also not hydrolyzed. The only substrate apart from the dipeptide chromatogen Gly-Pro-pNA which could be hydrolyzed was Val-Ala-pNA, which was cleaved by both the serum DPPIV and rsCD26 (relative to rate of hydrolysis of Gly-Pro-pNA, hydrolysis of Val-Ala-pNA was 0.098 and 0.079, for rsCD26 and serum DPPIV, respectively). Although DPPIV primarily hydrolyses dipeptides with a proline in the penultimate position, it is well documented that alanine in the penultimate position may also render a dipeptide sequence susceptible to cleavage by DPPIV (8). […]
DPPIV activity: The primary substrate used for determining DPPIV activity in all assays was Gly-Pro-p-nitroanilide (Gly-Pro-pNA; Sigma), which is hydrolyzed by DPPIV to release pNA absorbing strongly at 405 nm. […] Inhibition of the hydrolysis of Gly-Pro-pNA was determined in the presence of the specific DPPIV inhibitor Diprotin A (Bachem, King of Prussia, Pa.). […] The pH optimum was determined substituting phosphate buffer (100 mM, pH4.5-pH9) in place of standard incubation buffer.
Serum DPPIV: Serum DPPIV was prepared by isolating from 100 ml of pooled normal human male AB serum the fraction of protein precipitated by 50-70% saturated ammonium sulfate. […] The DPPIV activity was eluted by a 0-0.5M NaCl gradient in equilibration buffer and all DPPIV activity was found in the 10 mM-50 mM NaCl eluate (determined by conductance). […]

Vmax, Gly-Pro-pNA as substrate [1] [U/nmol rsCD26] | Km ([2]; Lineweaver-Burke transformation, substrate at different concentrations) [µM] | Vmax, Gly-Pro-pNA as substrate ([2]; U = enzyme cleaving 1 mmol Gly-Pro-pNA/min at pH7.6 and 20° C.) [U/nmol serum DPPIV] | SMILES | IC50 ([2]; read-out: IC50 (Diprotin A), inhibition of the hydrolysis of Gly-Pro-pNA) [µM]
1.52 | 280 | 0.65 | NCC(=O)N1CCC[C@H]1C(=O)Nc1ccc([N+](=O)[O-])cc1 [Gly-Pro-pNA, Gly-Pro-p-nitroanilide] (H-Gly-Pro-pNA) | –
– | – | – | CC[C@H](C)[C@H](N)C(=O)N1CCC[C@H]1C(=O)N[C@H](C(=O)O)[C@@H](C)CC [Diprotin A] | 250

Reference: US6265551A, “Form of dipeptidylpeptidase IV (CD26) found in human serum, antibodies thereto, and uses thereof” (Dana-Farber Cancer Institute, Inc., priority 1996, dated 2001)
